Assay results as given in ChEMBL document CHEMBL1201862, “PubChem BioAssay data set” (2004).
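These data come from cells grown in 96-well plates and exposed to compound for 48 hours at five concentrations. Here, GI50 denotes the concentration required for 50% inhibition of growth.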 The source made the active and inactive calls. Cut-off read from the data, not from the text of the source: active = GI50 up to about 1.1 µM and inactive = higher.

How the values were obtained:
Experiment in all cases: inhibition of tumour cell growth, NCI panel, 48 h
COLO 205 = tested on: COLO 205
DU-145 = tested on: DU-145
HCT-116 = tested on: HCT-116
K562 = tested on: K562
M14 = tested on: M14
MDA-MB-231 = tested on: MDA-MB-231
MDA-N = tested on: MDA-N
NCI-H23 = tested on: NCI-H23
OVCAR-5 = tested on: OVCAR-5
OVCAR-8 = tested on: OVCAR-8
RXF 393 = tested on: RXF 393
SF-268 = tested on: SF-268
SF-539 = tested on: SF-539
SK-MEL-2 = tested on: SK-MEL-2
SNB-19 = tested on: SNB-19
SNB-75 = tested on: SNB-75
T47D = tested on: T47D
LOX IMVI = tested on: LOX IMVI
MOLT-4 = tested on: MOLT-4

Measured: GI50

Fc1cccc(F)c1C(Nc1nncs1)Nc1nncs1
inactive: COLO 205 > 100 µM | DU-145 > 100 µM | HCT-116 50.5 µM | K562 > 100 µM | M14 59.6 µM | MDA-MB-231 > 100 µM | MDA-N 38 µM | NCI-H23 > 100 µM | OVCAR-5 > 100 µM | OVCAR-8 > 100 µM | RXF 393 > 100 µM | SF-268 > 100 µM | SF-539 49 µM | SK-MEL-2 > 100 µM | SNB-19 > 100 µM | SNB-75 > 100 µM | T47D > 100 µM

O=c1[nH]nc(Cc2ccccc2)n1Nc1ccccc1
inactive: COLO 205 > 100 µM | DU-145 > 100 µM | HCT-116 > 100 µM | K562 > 100 µM | LOX IMVI > 100 µM | MDA-MB-231 > 100 µM | MDA-N > 100 µM | MOLT-4 > 100 µM | NCI-H23 > 100 µM | OVCAR-5 > 100 µM | OVCAR-8 > 100 µM | SF-268 52 µM | SF-539 > 100 µM | SK-MEL-2 48.4 µM | SNB-75 17.2 µM | T47D > 10 µM

O=C(N/N=C/C=C/c1ccccc1)c1ccccc1Nc1ccccc1C(=O)N/N=C/C=C/c1ccccc1
inactive: COLO 205 > 100 µM | DU-145 > 100 µM | HCT-116 90.8 µM | K562 > 100 µM | M14 48 µM | MDA-MB-231 49.5 µM | MDA-N > 100 µM | MOLT-4 1.92 µM | NCI-H23 > 100 µM | OVCAR-5 > 100 µM | OVCAR-8 > 100 µM | RXF 393 20.5 µM | SF-268 34.4 µM | SK-MEL-2 59.4 µM | SNB-19 11.9 µM | SNB-75 21.4 µM | T47D > 100 µM

CCOC(=O)CN1CC(C2=C(O)CN(CC(=O)OCC)C2=O)=CC1=O
inactive: COLO 205 > 100 µM | DU-145 > 100 µM | HCT-116 > 100 µM | K562 > 100 µM | LOX IMVI > 100 µM | M14 > 100 µM | MDA-MB-231 > 100 µM | MDA-N > 100 µM | MOLT-4 > 100 µM | NCI-H23 > 100 µM | OVCAR-5 > 100 µM | OVCAR-8 > 100 µM | SF-268 > 100 µM | SF-539 > 100 µM | SK-MEL-2 > 100 µM | SNB-19 > 100 µM | SNB-75 > 100 µM | T47D > 100 µM

O=C1CC(=O)NC(NN2C(=O)/C(=C/c3ccccc3)N=C2c2ccccc2)=N1
inactive: COLO 205 > 100 µM | DU-145 > 100 µM | HCT-116 > 100 µM | K562 > 100 µM | M14 > 100 µM | MDA-MB-231 > 100 µM | MDA-N > 100 µM | MOLT-4 > 100 µM | NCI-H23 39 µM | OVCAR-5 > 100 µM | OVCAR-8 > 100 µM | RXF 393 > 100 µM | SF-268 > 100 µM | SF-539 > 100 µM | SK-MEL-2 > 100 µM | SNB-75 > 100 µM | T47D > 100 µM

Cc1[nH]c2ncn3nc(C(Cl)(Cl)Cl)nc3c2c1Cc1ccccc1
inactive: COLO 205 > 100 µM | DU-145 > 100 µM | HCT-116 > 100 µM | M14 > 100 µM | MDA-MB-231 > 100 µM | MDA-N > 100 µM | MOLT-4 > 100 µM | NCI-H23 > 100 µM | OVCAR-5 > 100 µM | OVCAR-8 > 100 µM | RXF 393 > 100 µM | SF-268 > 100 µM | SF-539 > 100 µM | SK-MEL-2 > 100 µM | SNB-19 > 100 µM | SNB-75 > 100 µM | T47D > 100 µM

Cc1ccc(-n2cnc(C(=N)C#N)c2N)cc1
inactive: COLO 205 > 100 µM | DU-145 > 100 µM | HCT-116 > 100 µM | K562 > 100 µM | LOX IMVI > 100 µM | M14 > 100 µM | MDA-MB-231 > 100 µM | MDA-N > 100 µM | MOLT-4 > 100 µM | NCI-H23 > 100 µM | OVCAR-5 > 100 µM | OVCAR-8 > 100 µM | SF-268 > 100 µM | SF-539 > 100 µM | SK-MEL-2 > 100 µM | SNB-19 > 100 µM | SNB-75 > 100 µM | T47D > 100 µM

COc1ccc(C(=O)C#Cc2cn(C3CC(O)C(CO)O3)c(=O)[nH]c2=O)cc1 (stereo not given)
inactive: COLO 205 33.3 µM | DU-145 > 100 µM | HCT-116 39.7 µM | K562 36.5 µM | M14 17.9 µM | MDA-MB-231 > 100 µM | MDA-N 60.3 µM | MOLT-4 39.4 µM | NCI-H23 > 100 µM | OVCAR-8 > 100 µM | RXF 393 52.2 µM | SF-268 53 µM | SF-539 19.3 µM | SK-MEL-2 56.4 µM | SNB-19 > 100 µM | SNB-75 > 100 µM | T47D 19.2 µM

Cc1ccc(-c2nc(C)c(C(=O)Nc3ccc(Cl)cc3)s2)cc1
inactive: COLO 205 > 100 µM | DU-145 > 100 µM | HCT-116 18.5 µM | K562 > 100 µM | LOX IMVI 31.1 µM | M14 27.7 µM | MDA-MB-231 30.3 µM | MDA-N > 100 µM | MOLT-4 > 100 µM | NCI-H23 24.2 µM | OVCAR-5 82.2 µM | OVCAR-8 18.8 µM | SF-268 26.5 µM | SF-539 29.9 µM | SK-MEL-2 34.4 µM | SNB-19 20.5 µM | SNB-75 15.1 µM | T47D > 100 µM

COc1ccc(S(=O)(=O)NC(CCC(=O)NN)C(=O)NN)cc1 (stereo not given)
inactive: COLO 205 > 100 µM | DU-145 > 100 µM | HCT-116 > 100 µM | K562 > 100 µM | LOX IMVI > 100 µM | M14 > 100 µM | MDA-MB-231 > 100 µM | MDA-N > 100 µM | MOLT-4 > 100 µM | NCI-H23 > 100 µM | OVCAR-5 > 100 µM | OVCAR-8 > 100 µM | SF-539 > 100 µM | SK-MEL-2 > 100 µM | SNB-19 > 100 µM | SNB-75 > 100 µM | T47D > 100 µM

COC(=O)C1(Cc2ccc3c(c2)CCC3)Cc2ccccc2C1O (stereo not given)
inactive: COLO 205 17.3 µM | DU-145 39.4 µM | HCT-116 17.4 µM | K562 12.2 µM | LOX IMVI 15.1 µM | M14 19.6 µM | MDA-MB-231 21.3 µM | MDA-N 3.36 µM | MOLT-4 8.22 µM | NCI-H23 19.8 µM | OVCAR-5 28.6 µM | OVCAR-8 18.6 µM | SF-268 19.4 µM | SF-539 17.5 µM | SK-MEL-2 12.8 µM | SNB-19 19.3 µM | SNB-75 > 10 µM | T47D 22.6 µM
